Results reported in the supplement of paper PMC6045584.
± gives the standard deviation of the averaged measurements.

Assays:
[1] = compound: CCCS(=O)(=O)Nc1ccc(F)c(C(=O)c2c[nH]c3ncc(Cl)cc23)c1F [PLX-4720]; test: surviving fraction relative to DMSO-only wells; higher = less growth inhibition; conditions: exposure time: 5 days
Method in brief: (§1)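 Viability values are CellTiter-Glo luminescence readings, given as surviving fraction against the median of DMSO-only wells. The readings were taken after 10 minutes at room temperature, following five days of continuous exposure to inhibitors at 0.5, 1, 5, 10, 50, 100, 500 and 1000 nM that began 24 hours after log-phase tumour cell lines were seeded at 250–500 cells per well in 384-well plates. Every line was screened three times and kept only if replicate Pearson r >0.7 and median Z' >0.3.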

[2] = compound: COc1cc([C@@H]2c3cc4c(cc3[C@@H](O[C@@H]3O[C@@H]5CO[C@@H](C)O[C@H]5[C@H](O)[C@H]3O)[C@H]3COC(=O)[C@H]23)OCO4)cc(OC)c1O [ETOPOSIDE]; test: as above; conditions: exposure time: 5 days
Method in brief: as §1

Test System	surviving fraction ([1]; 0.5 nM)	surviving fraction ([1]; 1 nM)	surviving fraction ([1]; 5 nM)	surviving fraction ([1]; 10 nM)	surviving fraction ([1]; 50 nM)	surviving fraction ([1]; 100 nM)	surviving fraction ([1]; 500 nM)	surviving fraction ([1]; 1000 nM)	surviving fraction ([2]; 0.5 nM)	surviving fraction ([2]; 1 nM)	surviving fraction ([2]; 5 nM)	surviving fraction ([2]; 10 nM)	surviving fraction ([2]; 50 nM)	surviving fraction ([2]; 100 nM)	surviving fraction ([2]; 500 nM)	surviving fraction ([2]; 1000 nM)
HCC1395 BREAST	0.827 ± 0.0092	0.878 ± 0.15	0.82 ± 0.15	0.787 ± 0.06	0.788 ± 0.17	0.888 ± 0.042	0.824 ± 0.08	0.927 ± 0.098	0.983 ± 0.081	0.994 ± 0.1	1.02 ± 0.12	1 ± 0.12	1.06 ± 0.14	1.04 ± 0.056	0.937 ± 0.12	0.926 ± 0.13
HCC1806 BREAST	0.727 ± 0.073	0.808 ± 0.067	0.861 ± 0.069	0.879 ± 0.042	0.858 ± 0.09	1.02 ± 0.052	0.855 ± 0.13	0.871 ± 0.076	0.883 ± 0.089	1.04 ± 0.14	1.05 ± 0.082	1.03 ± 0.075	1.14 ± 0.029	0.807 ± 0.067	0.182 ± 0.021	0.141 ± 0.0035
HCC1954 BREAST	0.487 ± 0.0099	0.487 ± 0.028	0.455 ± 0.038	0.452 ± 0.053	0.55 ± 0.029	0.476 ± 0.027	0.466 ± 0.072	0.403 ± 0.0074	0.889 ± 0.22	0.872 ± 0.095	1.1 ± 0.064	1.05 ± 0.074	0.953 ± 0.054	0.654 ± 0.014	0.512 ± 0.13	0.34 ± 0.0014
HCT15 LARGE INTESTINE	0.419 ± 0.018	0.875 ± 0.043	0.755 ± 0.072	0.866 ± 0.029	0.513 ± 0.025	0.926 ± 0.046	0.886 ± 0.077	1.03 ± 0.026	1.01 ± 0.037	0.981 ± 0.03	1.01 ± 0.041	1.04 ± 0.046	1.007 ± 0.0047	1.05 ± 0.033	0.704 ± 0.095	0.328 ± 0.037
HELA CERVIX	0.96 ± 0.039	0.947 ± 0.051	0.957 ± 0.069	0.953 ± 0.022	1 ± 0.046	1.01 ± 0.025	1 ± 0.055	1.06 ± 0.058	1.1 ± 0.033	1.1 ± 0.023	1.04 ± 0.031	1.04 ± 0.015	1.14 ± 0.063	1.18 ± 0.059	0.301 ± 0.044	0.182 ± 0.0037
HMLE3 BREAST	0.225 ± 0.027	0.8523 ± 0.007	0.721 ± 0.039	0.851 ± 0.049	0.556 ± 0.041	1.03 ± 0.031	1.14 ± 0.036	1.15 ± 0.085	1.02 ± 0.052	0.974 ± 0.06	1.01 ± 0.027	0.9737 ± 0.0075	0.826 ± 0.018	0.589 ± 0.06	0.279 ± 0.045	0.27 ± 0.017
HMT3552 BREAST	1.04	0.993	1.01	0.978	1.23	1.17	1.11	1.1	1.05	1.05	1.04	0.998	1.14	1.03	0.347	0.22
HOS BONE	0.92 ± 0.012	0.928 ± 0.014	0.935 ± 0.017	0.964 ± 0.0053	0.992 ± 0.015	0.995 ± 0.0027	0.96 ± 0.0078	1.01 ± 0.019	1.01 ± 0.011	1.02 ± 0.033	1.02 ± 0.018	1.019 ± 0.0095	0.978 ± 0.01	0.707 ± 0.033	0.0687 ± 0.0011	0.067 ± 0.0056
HOSMNG BONE	0.959 ± 0.026	0.962 ± 0.025	1 ± 0.061	0.985 ± 0.041	0.991 ± 0.16	1.04 ± 0.079	1 ± 0.12	1.03 ± 0.092	0.958 ± 0.1	0.984 ± 0.056	0.976 ± 0.024	1.01 ± 0.023	1.02 ± 0.021	1.04 ± 0.018	0.956 ± 0.079	0.78 ± 0.021
HS578T BREAST	0.925 ± 0.054	0.912 ± 0.021	0.908 ± 0.1	0.809 ± 0.16	0.978 ± 0.13	0.92 ± 0.055	0.943 ± 0.058	0.789 ± 0.11	0.878 ± 0.18	0.849 ± 0.12	0.831 ± 0.2	0.789 ± 0.079	0.95 ± 0.11	0.751 ± 0.064	0.59 ± 0.064	0.372 ± 0.029
HSSYII SYNOVIAL	0.231 ± 0.018	0.844 ± 0.038	0.694 ± 0.065	0.838 ± 0.03	0.385 ± 0.0033	0.9 ± 0.026	0.827 ± 0.016	0.987 ± 0.046	0.995 ± 0.045	0.972 ± 0.068	0.968 ± 0.049	0.971 ± 0.018	0.7943 ± 0.0045	0.59 ± 0.026	0.116 ± 0.0062	0.0892 ± 0.0041
HT1080 SOFT TISSUE	0.981 ± 0.049	0.994 ± 0.073	0.988 ± 0.025	0.989 ± 0.031	1.01 ± 0.038	0.979 ± 0.031	0.934 ± 0.042	0.885 ± 0.033	1.02 ± 0.028	0.995 ± 0.026	0.951 ± 0.02	0.94 ± 0.015	0.616 ± 0.046	0.467 ± 0.0051	0.217 ± 0.021	0.222 ± 0.0056
HU09 BONE	0.863 ± 0.032	0.959 ± 0.13	0.873 ± 0.013	0.941 ± 0.071	1.01 ± 0.07	0.946 ± 0.14	0.898 ± 0.11	1 ± 0.11	0.957 ± 0.075	0.977 ± 0.09	1.12 ± 0.099	1 ± 0.023	0.972 ± 0.12	0.803 ± 0.087	0.146 ± 0.0087	0.0523 ± 0.0064
JIMT1 BREAST	0.857 ± 0.025	0.862 ± 0.042	0.894 ± 0.05	0.887 ± 0.046	0.966 ± 0.067	1.01 ± 0.06	0.947 ± 0.066	0.976 ± 0.037	0.988 ± 0.02	1.01 ± 0.026	1.03 ± 0.032	1.03 ± 0.015	1.06 ± 0.022	1.07 ± 0.026	0.893 ± 0.028	0.694 ± 0.028
JURKAT HAEMATOPOIETIC AND LYMPHOID TISSUE	0.9917 ± 0.0087	0.964 ± 0.02	0.935 ± 0.026	0.972 ± 0.04	0.981 ± 0.026	0.996 ± 0.059	1.03 ± 0.02	1.06 ± 0.016	1.084 ± 0.0084	1.1 ± 0.023	1.052 ± 0.0055	1.011 ± 0.0045	0.633 ± 0.043	0.261 ± 0.01	0.064 ± 0.005	0.0413 ± 0.00058
KPD BONE	0.917 ± 0.082	0.916 ± 0.017	0.973 ± 0.024	0.982 ± 0.011	1.01 ± 0.075	0.988 ± 0.075	0.932 ± 0.085	0.9813 ± 0.0098	0.955 ± 0.016	0.894 ± 0.047	1.02 ± 0.026	1.02 ± 0.1	0.944 ± 0.023	0.811 ± 0.047	0.393 ± 0.0087	0.292 ± 0.014
LM7 BONE	0.725 ± 0.067	0.715 ± 0.026	0.809 ± 0.033	0.825 ± 0.03	0.884 ± 0.066	0.948 ± 0.069	0.871 ± 0.028	0.87 ± 0.031	0.9 ± 0.14	0.941 ± 0.072	1.01 ± 0.068	1.01 ± 0.13	0.994 ± 0.12	0.953 ± 0.075	0.677 ± 0.034	0.449 ± 0.045
MCF7 BREAST	0.746 ± 0.042	0.873 ± 0.059	0.831 ± 0.033	0.83 ± 0.035	0.83 ± 0.014	0.915 ± 0.022	0.851 ± 0.021	0.899 ± 0.048	0.9 ± 0.049	0.88 ± 0.045	0.867 ± 0.079	0.9 ± 0.037	0.951 ± 0.07	0.935 ± 0.014	0.702 ± 0.051	0.644 ± 0.041
MDAMB134 BREAST	0.624 ± 0.088	0.701 ± 0.076	0.715 ± 0.014	0.78 ± 0.25	0.754 ± 0.09	0.9355 ± 0.0021	0.726 ± 0.076	0.76 ± 0.054	1.08 ± 0.13	1.187 ± 0.0057	0.994 ± 0.13	0.992 ± 0.099	1.03 ± 0.19	1.12 ± 0.17	1.11 ± 0.065	1.02 ± 0.055
MDAMB157 BREAST	0.848 ± 0.032	0.962 ± 0.069	0.958 ± 0.079	1 ± 0.093	0.914 ± 0.094	1.01 ± 0.027	0.868 ± 0.082	0.86 ± 0.039	0.927 ± 0.12	0.938 ± 0.044	1.07 ± 0.044	0.99 ± 0.055	0.895 ± 0.038	0.874 ± 0.1	0.201 ± 0.046	0.221 ± 0.053
MDAMB231 BREAST	0.936 ± 0.018	0.964 ± 0.017	0.969 ± 0.024	0.9755 ± 0.0065	1.01 ± 0.031	1.03 ± 0.012	1.01 ± 0.011	1.03 ± 0.038	0.987 ± 0.022	1.03 ± 0.056	1.02 ± 0.018	0.995 ± 0.018	1.04 ± 0.029	1.03 ± 0.036	0.633 ± 0.017	0.454 ± 0.043
